Measured values: EP0432983A2 (priority 1989, dated 1991)
Values after ≈ are worked out from the molar mass of the structure shown.

How the values were obtained:
[1] = tested on: P-388 (mouse DBA/2 lymphoid neoplasm); assay: General anti-tumour assay, P-388; format: cell-based
Method: (§1) With compounds AH-3, AH-4 and AH-5, four general anti-tumour assays and two cytotoxicity assays were performed. Current screening protocols were employed using test substance diluted as above and at varying concentrations. Tests were performed against the tumour cells P-388 (mouse DBA/2 lymphoid neoplasm), A-549 (human lung carcinoma), HT-29 (human colon carcinoma) and MCF-7 (human breast carcinoma) and for the cytotoxicity assays against CV-1 (monkey kidney fibroblast) and BHK (Hamster kidney fibroblast).
(§2) Scoring is performed as follows: (-) no activity - the number of cells is equal to the control of growth, 0-40% cell inhibition (+) low activity - numbers of cells are reduced by approx 50-60% (++) good activity - numbers of cells are reduced by approx 70-90% (+++) very good activity - there is 100% cell inhibition [(+) is the approximate IC₅₀]

[2] = tested on: CV-1 (monkey kidney fibroblast); assay: Cytotoxicity assay, CV-1; format: cell-based
Method: as §1, §2

[3] = tested on: BHK (Hamster kidney fibroblast); assay: Cytotoxicity assay, BHK; format: cell-based
Method: as §1, §2

[4] = tested on: HT-29 (human colon carcinoma); assay: General anti-tumour assay, HT-29; format: cell-based
Method: as §1, §2

[5] = tested on: A-549 (human lung carcinoma); assay: General anti-tumour assay, A-549; format: cell-based
Method: as §1, §2

[6] = tested on: VSV (Vesicular Stomatitis Virus); assay: microbe, parasite or virus in culture; format: cell-based; conditions: BHK, read-out: IC50 µg/ml approx
[7] = tested on: MCF-7 (human breast carcinoma); assay: General anti-tumour assay, MCF-7; format: cell-based
Method: as §1, §2

[8] = tested on: HSV-1 (herpes simplex virus, type 1); assay: General anti-viral assay, HSV-1 in CV-1 cells (plaque reduction); format: cell-based; conditions: Human alphaherpesvirus 1, CV-1, read-out: IC50 µg/ml approx

## CC(C)=CC(=O)CC(C)C1CCC(C)c2c1cc(C)c1c2OCO1 (stereo not drawn) [AH-3, Helioporin C]
[1]; Mus musculus, P388, P-388, read-out: IC50 µg/ml approx
  IC50: ~1 µg/mL (≈ 3.04 µM)
[1]; P-388, TEST CONC (µg) 0.2
  activity (cell inhibition): - ((-) no activity - the number of cells is equal to the control of growth, 0-40% cell inhibition)
[1]; P-388, TEST CONC (µg) 0.5
  activity (cell inhibition): - ((-) no activity - the number of cells is equal to the control of growth, 0-40% cell inhibition)
[1]; P-388, TEST CONC (µg) 1
  activity (cell inhibition): + ((+) low activity - numbers of cells are reduced by approx 50-60%)
[1]; P-388, TEST CONC (µg) 2
  activity (cell inhibition): ++ ((++) good activity - numbers of cells are reduced by approx 70-90%)
[1]; P-388, TEST CONC (µg) 5
  activity (cell inhibition): +++ ((+++) very good activity - there is 100% cell inhibition)
[1]; P-388, TEST CONC (µg) 10
  activity (cell inhibition): +++ ((+++) very good activity - there is 100% cell inhibition)
[1]; P-388, TEST CONC (µg) 20
  activity (cell inhibition): +++ ((+++) very good activity - there is 100% cell inhibition)
[2]; CV-1, TEST CONC (µg) 0.2
  activity (cell inhibition): - ((-) no activity - the number of cells is equal to the control of growth, 0-40% cell inhibition)
[2]; CV-1, TEST CONC (µg) 0.5
  activity (cell inhibition): - ((-) no activity - the number of cells is equal to the control of growth, 0-40% cell inhibition)
[2]; CV-1, TEST CONC (µg) 1
  activity (cell inhibition): - ((-) no activity - the number of cells is equal to the control of growth, 0-40% cell inhibition)
[2]; CV-1, TEST CONC (µg) 2
  activity (cell inhibition): - ((-) no activity - the number of cells is equal to the control of growth, 0-40% cell inhibition)
[2]; CV-1, TEST CONC (µg) 5
  activity (cell inhibition): - ((-) no activity - the number of cells is equal to the control of growth, 0-40% cell inhibition)
[2]; CV-1, TEST CONC (µg) 10
  activity (cell inhibition): ++ ((++) good activity - numbers of cells are reduced by approx 70-90%)
[2]; CV-1, TEST CONC (µg) 20
  activity (cell inhibition): +++ ((+++) very good activity - there is 100% cell inhibition)
[2]; Primates, CV-1, read-out: IC50 µg/ml approx
  IC50: 5 to 10 µg/mL (≈ 15.2 to 30.4 µM)
[3]; Mesocricetus auratus, read-out: IC50 µg/ml approx
  IC50: ~1 µg/mL (≈ 3.04 µM)
[3]; TEST CONC (µg) 0.2
  activity (cell inhibition): - ((-) no activity - the number of cells is equal to the control of growth, 0-40% cell inhibition)
[3]; TEST CONC (µg) 0.5
  activity (cell inhibition): - ((-) no activity - the number of cells is equal to the control of growth, 0-40% cell inhibition)
[3]; TEST CONC (µg) 1
  activity (cell inhibition): + ((+) low activity - numbers of cells are reduced by approx 50-60%)
[3]; TEST CONC (µg) 2
  activity (cell inhibition): +++ ((+++) very good activity - there is 100% cell inhibition)
[3]; TEST CONC (µg) 5
  activity (cell inhibition): +++ ((+++) very good activity - there is 100% cell inhibition)
[3]; TEST CONC (µg) 10
  activity (cell inhibition): +++ ((+++) very good activity - there is 100% cell inhibition)
[3]; TEST CONC (µg) 20
  activity (cell inhibition): +++ ((+++) very good activity - there is 100% cell inhibition)
[4]; HT-29, TEST CONC (µg) 0.2
  activity (cell inhibition): - ((-) no activity - the number of cells is equal to the control of growth, 0-40% cell inhibition)
[4]; HT-29, TEST CONC (µg) 0.5
  activity (cell inhibition): - ((-) no activity - the number of cells is equal to the control of growth, 0-40% cell inhibition)
[4]; HT-29, TEST CONC (µg) 1
  activity (cell inhibition): - ((-) no activity - the number of cells is equal to the control of growth, 0-40% cell inhibition)
[4]; HT-29, TEST CONC (µg) 2
  activity (cell inhibition): + ((+) low activity - numbers of cells are reduced by approx 50-60%)
[4]; HT-29, TEST CONC (µg) 5
  activity (cell inhibition): ++ ((++) good activity - numbers of cells are reduced by approx 70-90%)
[4]; HT-29, TEST CONC (µg) 10
  activity (cell inhibition): +++ ((+++) very good activity - there is 100% cell inhibition)
[4]; HT-29, TEST CONC (µg) 20
  activity (cell inhibition): +++ ((+++) very good activity - there is 100% cell inhibition)
[4]; Homo sapiens, HT-29, read-out: IC50 µg/ml approx
  IC50: ~2 µg/mL (≈ 6.09 µM)
[5]; A-549, TEST CONC (µg) 0.2
  activity (cell inhibition): - ((-) no activity - the number of cells is equal to the control of growth, 0-40% cell inhibition)
[5]; A-549, TEST CONC (µg) 0.5
  activity (cell inhibition): - ((-) no activity - the number of cells is equal to the control of growth, 0-40% cell inhibition)
[5]; A-549, TEST CONC (µg) 1
  activity (cell inhibition): - ((-) no activity - the number of cells is equal to the control of growth, 0-40% cell inhibition)
[5]; A-549, TEST CONC (µg) 2
  activity (cell inhibition): - ((-) no activity - the number of cells is equal to the control of growth, 0-40% cell inhibition)
[5]; A-549, TEST CONC (µg) 5
  activity (cell inhibition): + ((+) low activity - numbers of cells are reduced by approx 50-60%)
[5]; A-549, TEST CONC (µg) 10
  activity (cell inhibition): +++ ((+++) very good activity - there is 100% cell inhibition)
[5]; A-549, TEST CONC (µg) 20
  activity (cell inhibition): +++ ((+++) very good activity - there is 100% cell inhibition)
[5]; Homo sapiens, A549, A-549, read-out: IC50 µg/ml approx
  IC50: ~5 µg/mL (≈ 15.2 µM)
[6]
  IC50: > 40 µg/mL
BHK cells
  cytotoxicity (inhibition zone on the cell sheet): 0-
[7]; Homo sapiens, MCF7, MCF-7, read-out: IC50 µg/ml approx
  IC50: ~5 µg/mL (≈ 15.2 µM)
[7]; MCF-7, TEST CONC (µg) 0.2
  activity (cell inhibition): - ((-) no activity - the number of cells is equal to the control of growth, 0-40% cell inhibition)
[7]; MCF-7, TEST CONC (µg) 0.5
  activity (cell inhibition): - ((-) no activity - the number of cells is equal to the control of growth, 0-40% cell inhibition)
[7]; MCF-7, TEST CONC (µg) 1
  activity (cell inhibition): - ((-) no activity - the number of cells is equal to the control of growth, 0-40% cell inhibition)
[7]; MCF-7, TEST CONC (µg) 2
  activity (cell inhibition): - ((-) no activity - the number of cells is equal to the control of growth, 0-40% cell inhibition)
[7]; MCF-7, TEST CONC (µg) 5
  activity (cell inhibition): + ((+) low activity - numbers of cells are reduced by approx 50-60%)
[7]; MCF-7, TEST CONC (µg) 10
  activity (cell inhibition): ++ ((++) good activity - numbers of cells are reduced by approx 70-90%)
[7]; MCF-7, TEST CONC (µg) 20
  activity (cell inhibition): +++ ((+++) very good activity - there is 100% cell inhibition)
[8]
  IC50: ~40 µg/mL (≈ 122 µM)
